Values after ≈ are worked out from the molar mass of the structure shown. Like-named read-outs stand apart in the source and are kept apart here.
Key:
[1] = ref Hua et al. 11; cited from earlier work
[2] = ref Liang et al. 9; cited from earlier work
[3] = test system: mAb against a generic hapten (3-(4-dimethoxyphosphorothioyloxy phenyl)propanoic acid); details: ref Liu et al. 10; cited from earlier work
mAb3C9 [4] = assay: mimotope-based dcELISA (mAb3C9 and M20-GST-BAD/SA-HRP competitor); format: binding, mouse; details: for CR (%): M20-GST-BAD, (IC50 of parathion-methyl/IC50 of pesticide) × 100; for LOD (IC10): mAb3C9, M20-GST-BAD; for IC50 ± SD: mAb3C9, competitor M20-GST-BAD
Experimental: To develop a mimotope-based dcELISA, the biotinylated mimotope fusion protein was firstly assembled with streptavidin-HRP conjugate (SA-HRP) utilized the high affinity of biotin and streptavidin. The assembly process was just mixing a certain amount of biotinylated mimotope fusion protein with SA-HRP and incubating them at 4 °C overnight before use as an HRP-labeled competitor.
An innovative mimotope-based dcELISA was developed and performed as below. […] TMB solution (100 μL/well) was added and incubated for 15 min at 37 °C.
The optimal condition for mimotope-based dcELISA was optimized as chemosynthesized antigen-based dcELISA. The selectivity and sensitivity of the developed mimotope-based dcELISA for the 24 OPs were also determined under the optimum condition.

mAb4D11 = assay: optimized mAb4D11-based dcELISA; details: mAb4D11-based dcELISA
Experimental: (§1) The dcELISA procedure was performed as below. First, the plate (Costar, Corning Inc., New York, USA) was coated with coating antigen (100 μL/well in 1 × PBS) for 1 h at 37 °C. Then, the wells were washed four times with PBST (1 × PBS with 0.05% (v/v) Tween-20) and blocked with 2% skim milk (200 μL/well) for 1 h at 37 °C. After washing four times, 50 μL analyte in MeOH-water solution and 50 μL mAb-HRP in PBS were added. The plate was incubated for 1 h at 37 °C and then washed four times before adding TMB solution (100 μL/well). After incubation for 15 min at 37 °C, 50 μL/well of H2SO4 (2 mol/L) was added to stop the reaction, and the absorbance was recorded at 450 nm using the Model 680 plate reader (Bio-Rad, USA).
(§2) 18 kinds of O,O-dimethyl OPs and 6 kinds of O,O-diethyl OPs were purchased from National Standards of China and used for the selectivity and sensitivity study using the optimized dcELISA procedure. […] The IC50 value and detection limit of each OP were calculated. The CR value, which was used to evaluate the selectivity of the method, was calculated using the following equation:

mAb3C9 [5] = assay: optimized chemosynthesized antigen-based dcELISA (mAb3C9 and hapten 6-OVA); details: for CR (%): Hapten 6-OVA, (IC50 of parathion-methyl/IC50 of pesticide) × 100; for LOD (IC10): mAb3C9, Hapten 6-OVA; for IC50 ± SD: mAb3C9, coating antigen Hapten 6-OVA
Experimental: as §1, §2

Structure (SMILES)	IC50 [1] [µg/mL]	IC50 [2] [µg/mL]	IC50 [3] [µg/mL]	CR (%) (mAb3C9 [4])	LOD (IC10) (mAb3C9 [4]) [µg/mL]	IC50 ± SD (mAb3C9 [4]) [µg/mL]	CR (%) (mAb4D11)	IC50 (mAb4D11) [µg/mL]	CR (%) (mAb3C9 [5])	LOD (IC10) (mAb3C9 [5]) [µg/mL]	IC50 ± SD (mAb3C9 [5]) [µg/mL]	LOD (mAb4D11) [ng/mL]
COP(=S)(OC)Oc1ccc([N+](=O)[O-])cc1Cl [Isochlorthion]	0.5766 (≈ 1.94 µM)	–	–	–	–	–	–	–	–	–	–	–
CCOC(=O)CC(SP(=S)(OC)OC)C(=O)OCC (centres unmarked) [Malathion]	> 100	0.0301 (≈ 0.0911 µM)	10.47 (≈ 31.7 µM)	–	–	–	–	–	–	–	–	–
COc1nn(CSP(=S)(OC)OC)c(=O)s1 [Methidathion]	–	0.1917 (≈ 0.634 µM)	–	157.6	0.0006	0.0032 ± 0.0002 (≈ 0.0106 µM)	< 0.3	> 5	162.9	0.0006	0.0029 ± 0.0001 (≈ 0.00959 µM)	–
CNC(=O)/C=C(\C)OP(=O)(OC)OC [Monocrotophos]	–	–	–	2.5	0.0616	0.2014 ± 0.0043 (≈ 0.902 µM)	0.5	2.9145 (≈ 13.1 µM)	2.6	0.0432	0.1791 ± 0.0086 (≈ 0.803 µM)	594.3
CCOP(=O)(OCC)Oc1ccc([N+](=O)[O-])cc1 [Paraoxon-ethyl]	0.1622 (≈ 0.589 µM)	–	–	–	–	–	–	–	–	–	–	–
COP(=O)(OC)Oc1ccc([N+](=O)[O-])cc1 [Paraoxon-methyl]	0.1187 (≈ 0.48 µM)	–	–	1.7	0.0632	0.2949 ± 0.0093 (≈ 1.19 µM)	0.5	2.6433 (≈ 10.7 µM)	2.0	0.0524	0.231 ± 0.0121 (≈ 0.935 µM)	512.5
CCOP(=S)(OCC)Oc1ccc([N+](=O)[O-])cc1 [Parathion]	0.0113 (≈ 0.0388 µM)	> 1	–	0.2	0.4392	2.3284 ± 0.0514 (≈ 7.99 µM)	8.9	0.1636 (≈ 0.562 µM)	0.2	0.4663	2.4125 ± 0.061 (≈ 8.28 µM)	17.5
COP(=S)(OC)SCN1C(=O)c2ccccc2C1=O [Phosmet]	–	0.1597 (≈ 0.503 µM)	–	332.9	0.0003	0.0015 ± 0.0001 (≈ 0.00473 µM)	< 0.3	> 5	323.6	0.0003	0.0014 ± 0.0001 (≈ 0.00441 µM)	–
CCOP(=S)(OCC)O/N=C(\C#N)c1ccccc1 [Phoxim]	> 100	–	–	0.2	0.4336	2.5779 ± 0.0721 (≈ 8.64 µM)	5.9	0.2441 (≈ 0.818 µM)	0.2	0.4354	2.6524 ± 0.112 (≈ 8.89 µM)	49.5
CCN(CC)c1nc(C)cc(OP(=S)(OC)OC)n1 [Pirimiphos-methyl]	–	–	–	6.0	0.0222	0.0837 ± 0.0038 (≈ 0.274 µM)	23.4	0.0621 (≈ 0.203 µM)	6.0	0.0156	0.0774 ± 0.0033 (≈ 0.253 µM)	9.1
CCOP(=S)(OCC)Oc1cnc2ccccc2n1 [Quinalphos]	–	–	–	0.2	0.5318	3.2266 ± 0.0592 (≈ 10.8 µM)	7.9	0.1842 (≈ 0.617 µM)	0.2	0.5123	2.8243 ± 0.0952 (≈ 9.47 µM)	32.5
COP(=O)(OC)O/C(=C\Cl)c1cc(Cl)c(Cl)cc1Cl [Tetrachlorvinphos]	–	–	–	8.5	0.0112	0.0597 ± 0.0033 (≈ 0.163 µM)	0.6	2.4313 (≈ 6.64 µM)	8.6	0.0089	0.0544 ± 0.0021 (≈ 0.149 µM)	536.3
COP(=S)(OC)Oc1c(Cl)cc(C)cc1Cl [Tolclofos-methyl]	> 100	–	1.1 (≈ 3.65 µM)	61.3	0.0017	0.0083 ± 0.0004 (≈ 0.0276 µM)	46.2	0.0314 (≈ 0.104 µM)	70.2	0.0012	0.0066 ± 0.0003 (≈ 0.0219 µM)	9.5
